Where “and” joins values, the source holds several entries; their conditions need not be identical. Equal entries are not always repeated.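 Dose response: 5 concentrations. Exposure: 48 h. Format: 96-well plates. Endpoint: linear interpolation; highest concentration if not reached. Abbreviation: GI50, concentration required for 50% inhibition of growth. At the TGI there is no net growth.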
Tests used:
Assay in all cases: inhibition of tumour cell growth, NCI panel, 48 h
[1] = system: A498 renal
[2] = system: CCRF-CEM leukemia
[3] = system: EKVX NSCLC
[4] = system: HL-60(TB) leukemia
[5] = system: KM12 colon
[6] = system: NCI-H226 lung
[7] = system: SF-295 CNS
[8] = system: SK-MEL-28 melanoma
[9] = system: UO-31 renal
[10] = system: HS 578T breast

| Compound | TGI [1] [µM] | TGI [2] [µM] | TGI [3] | TGI [4] | TGI [5] [µM] | TGI [6] [µM] | TGI [7] [µM] | TGI [8] | TGI [9] [µM] | TGI [10] [µM] | GI50 [1] [µM] | GI50 [3] [µM] | GI50 [10] [µM] | GI50 [5] | GI50 [6] [µM] | GI50 [7] [µM] | GI50 [9] [µM] | GI50 [2] | GI50 [4] [µM] | GI50 [8] [µM] |
| --- | --- | --- | --- | --- | --- | --- | --- | --- | --- | --- | --- | --- | --- | --- | --- | --- | --- | --- | --- | --- |
| O=C(N/C(=C\c1cc(Cl)ccc1Cl)c1nc2ccc(Cl)cc2[nH]1)c1ccccc1 | 41.9 | 51.4 | 50.6 µM | 37.1 µM | 29.4 | 42.4 | 31.3 | 32.4 µM | 24.4 |  |  |  |  |  |  |  |  |  |  |  |
| Clc1ccccc1NN(Cc1ccncc1)c1ccccc1Cl | 33.7 |  | 30.1 µM | 37 µM | 36 | 39.3 | 31.6 | 40.7 µM | 63.3 | 48.6 |  |  |  |  |  |  |  |  |  |  |
| CC1=C(Cl)C[C@@H](/C(C)=C\Cl)O[C@@]1(O)C(Br)Br | 98.4 | 57.5 | 80.3 µM | 38.1 µM | > 100 |  | > 100 | > 100 µM | 72.7 | > 100 |  |  |  |  |  |  |  |  |  |  |
| CN1CCN(c2cc3nc4ccccc4n(-c4ccc(Cl)cc4)c-3cc2=N)CC1 | > 100 |  | > 100 µM | 4.35 µM | 43.8 | > 100 | 59.5 |  | > 100 | 95.7 | > 100 | 30 | 20.7 | 16.6 µM | 60.7 | 23.4 | 29.2 |  |  |  |
| Nc1ncnc2c1nnn2C1C=C(CO)C(O)C1O (stereo not drawn) | > 100 | > 100 | > 100 µM | 28.5 µM | > 100 | > 100 | > 100 | > 100 µM | > 100 |  |  |  |  |  |  |  |  |  |  |  |
| COC1(C)C(=O)N2C1N(C(=O)OCc1ccccc1)CC2(C)C (stereo not drawn) | > 100 | > 100 | > 100 µM | > 100 µM |  | > 100 | > 100 | > 100 µM | > 100 |  |  |  |  |  |  |  |  |  |  |  |
| O=C(NCC(=O)N1CCOC1=O)OCc1ccccc1 | > 100 | > 100 | > 100 µM | > 100 µM | > 100 | > 100 | > 100 | > 100 µM | > 100 |  |  |  |  |  |  |  |  |  |  |  |
| NCCC(=O)NC(Cc1cnc[nH]1)C(=O)O (stereo not drawn) |  | > 100 | > 100 µM | > 100 µM | > 100 | > 100 | > 100 | > 100 µM | > 100 | > 100 |  |  |  |  |  |  |  |  |  |  |
| COc1cccc2c1[C@H]1CO[C@H]3C4C[C@H](C(=O)O)C([C@@H](C2)N13)N4C (stereo partly drawn) |  |  | 5.94 µM and 6.16 µM | 4.03 µM and 1.85 µM | 1.64 | 5.59 | > 41.8 | 4.91 µM and 1.65 µM | 7.72 | 0.656 |  | 1.87 |  | 5.21 µM and 0.685 µM |  |  |  | 2.42 µM and 1.6 µM | 0.368 | 0.621 |
| Cc1c2ccncc2c(C)c2c1c1cc(CO)ccc1n2C | 0.0531 | 4.18 | 5.98 µM | 5.6 µM | 20 |  | 2.5 | 6.5 µM | 3.96 | 7.86 | 0.02 | 0.719 | 0.96 | 0.492 µM |  | 0.383 | 0.304 | 0.545 µM | 0.854 | 1.82 |
